Assay [1] addresses T1, Protein farnesyltransferase (PFT) (Plasmodium falciparum) (UniProt Q5EI73+Q5EI74). Kind of assay: Inhibition of Plasmodium falciparum PFT at 5 nM.
Assay [2] has as its target T1, Protein farnesyltransferase (PFT) (Plasmodium falciparum). Kind of assay: Inhibition of Plasmodium falciparum PFT at 50 nM.

The inhibition is the percentage by which the read-out fell short of the control. Lower therefore signals a response near the control. Consider `Cn1cnc(S(=O)(=O)N(CCN(Cc2cncn2C)c2ccc(C#N)cc2)CC2CCOCC2)c1`, for which the inhibition in assay [1] came out at 28%; in assay [2], 84%.
Consider `Cn1cnc(S(=O)(=O)N(CCN(Cc2cncn2C)c2ccc(C#N)cc2)CC2CCNCC2)c1`, for which the inhibition in assay [1] and in assay [2] was 5% each time.
On to `CC(C)C(=O)N1CCC(CN(CCN(Cc2cncn2C)c2ccc(C#N)cc2)S(=O)(=O)c2cn(C)cn2)CC1`, for which the inhibition in assay [1] came to 57%; in assay [2], 92%.
For the molecule `Cn1cnc(S(=O)(=O)N(CCN(Cc2cncn2C)c2ccc(C#N)cc2)CC2CCN(C(=O)OC(C)(C)C)CC2)c1`, the inhibition is 81% in assay [1] and 96% in assay [2].
On to `O=S(=O)(c1cccc2cccnc12)N(CCN(Cc1c[nH]cn1)c1ccccc1)Cc1ccccc1`, for which the inhibition in assay [2] was determined as 0%.
In the case of `Cn1cnc(S(=O)(=O)N(CCN(Cc2cncn2C)c2ccc(C#N)cc2)CC2CCN(c3ncccn3)CC2)c1`, the results for the inhibition in assay [1] and in assay [2] were 74% and 96%, respectively.
The matching figures for `CC(=O)N(CCN(Cc1cncn1C)c1ccc(C#N)cc1)Cc1ccccc1`: 0% and 56%.
Take `Cc1ccc(CN(CCN(Cc2cncn2C)c2ccc(C#N)cc2)S(=O)(=O)c2cn(C)cn2)cc1`: the inhibition came to 45% in assay [1] and 54% in assay [2].
On the same counts, the results for `Cn1cnc(S(=O)(=O)N(CCN(Cc2cncn2C)c2ccc(C#N)cc2)Cc2cccnc2)c1` are 18% and 74%.
The molecule `O=S(=O)(c1cccs1)N(CCN(Cc1c[nH]cn1)c1ccccc1)Cc1ccccc1` gave an inhibition in assay [2] of 5%.
On to `CC(=O)N1CCC(CN(CCN(Cc2cncn2C)c2ccc(C#N)cc2)S(=O)(=O)c2cn(C)cn2)CC1`, for which the inhibition in assay [1] worked out at 8%; in assay [2], 44%.
On to `Cn1cnc(S(=O)(=O)N(CCN(Cc2cncn2C)c2ccc(C#N)cc2)Cc2ccncc2)c1`, for which the inhibition in assay [1] worked out at 22%; in assay [2], 62%.
Molecule `Cn1cnc(S(=O)(=O)N(CCN(Cc2c[nH]cn2)c2ccccc2)Cc2ccccc2)c1` gave an inhibition in assay [2] of 32%.
Still for that read-out and setting: to `O=S(=O)(c1ccccc1)N(CCN(Cc1c[nH]cn1)c1ccccc1)Cc1ccccc1` belongs 7%.
With `Cn1cncc1CN(CCN(Cc1ccccc1)S(=O)(=O)c1cccs1)c1ccc(C#N)cc1`, the inhibition amounted to 17% in assay [1] and 74% in assay [2].
Regarding `O=S(=O)(c1ccc2ccccc2c1)N(CCN(Cc1c[nH]cn1)c1ccccc1)Cc1ccccc1`, the inhibition in assay [2] turned out to be 0%.
On to `Cn1cnc(S(=O)(=O)N(CCN(Cc2cncn2C)c2ccc(C#N)cc2)CCn2cccc2)c1`, for which the inhibition is 11% in assay [1] and 56% in assay [2].
`Cn1cnc(S(=O)(=O)N(CCN(Cc2c[nH]cn2)c2ccc(Br)cc2)Cc2ccccc2)c1` came in with an inhibition in assay [2] of 80%.
As for `Cn1cnc(S(=O)(=O)N(CCN(Cc2cncn2C)c2ccc(C#N)cc2)Cc2ccc(-n3cccc3)cc2)c1`, the inhibition in assay [1] amounted to 39%; in assay [2], 85%.
For the molecule `C=C(Br)CN(CCN(Cc1cncn1C)c1ccc(C#N)cc1)S(=O)(=O)c1cn(C)cn1`, the results for the inhibition in assay [1] and in assay [2] were 25% and 80%, respectively.
Regarding `CN(C)c1cccc2c(S(=O)(=O)N(CCN(Cc3c[nH]cn3)c3ccccc3)Cc3ccccc3)cccc12`, the inhibition in assay [2] was 0%.
Regarding `CC(C)C(=O)N(CCN(Cc1cncn1C)c1ccc(C#N)cc1)Cc1ccccc1`, the inhibition in assay [1] came to 0%; in assay [2] it was 61%.
On to `C=C(C)CN(CCN(Cc1cncn1C)c1ccc(C#N)cc1)S(=O)(=O)c1cn(C)cn1`, for which the values for the inhibition in assay [1] and in assay [2] were 6% and 77%, respectively.
For `Cn1cncc1CN(CCN(Cc1ccccc1)S(=O)(=O)c1cccc2cccnc12)c1ccc(C#N)cc1`, the inhibition in assay [1] was found to be 14%; in assay [2], 35%.
On the same counts, the results for `C=CCN(CCN(Cc1cncn1C)c1ccc(C#N)cc1)S(=O)(=O)c1cn(C)cn1` are 1% and 42%.

For the origin of these results see ChEMBL document CHEMBL1137254, “Structurally simple, potent, Plasmodium selective farnesyltransferase inhibitors that arrest the growth of malaria parasites” (J Med Chem, 2006).
